Legend:
in vivo = details: both sexes, Wistar, rat, sc
Description: The aim of the study was to investigate acute toxic effects of the test substance, after a single subcutaneous administration to Wistar rats. The testing was performed according to the methods: ČSN EN ISO 10993-11: Biologické hodnoceni zdravotnických prostředků—část 11: Zkoušky na systémovou toxicitu and OECD Test Guideline No. 420 Acute Oral Toxicity—Fixed Dose Proceduře. Adopted 17 Dec. 2001. The test substance 114 was administered in a single dose as solution in vehicle (olive oil), given subcutaneously to male and female Wistar rats. The dosing was performed sequentially. The pre-test (the sighting study) was performed with 1 female and 1 male for each dose level. The dose level of 30 mg/kg was used as the starting dose. No death of animal was recorded at the starting dose, therefore the following dose level was used (100 mg/kg). […] The presence of subcutaneously administered test substance at the dose level of 30 and 100 mg/kg was visible to second day after application. […] According to the study results the Maximum Tolerated Dose (subcutaneous) of the test substance for male and female rats is >100 mg/kg.

[1] = Calcein AM cytotoxicity, NIH-3T3; details: mouse, NIH-3T3 fibroblasts
Description: (§1) One of the parameters used, as the basis for cytotoxicity assays, is the metabolic activity of viable cells. For example, a microtiter assay, which uses the Calcein AM, is now widely used to quantitate cell proliferation and cytotoxicity. […] Because only metabolically active cells cleave Calcein AM, these assays detect viable cells exclusively. The quantity of reduced Calcein AM corresponds to the number of vital cells in the culture.
(§2) Mouse fibroblasts NIH3T3; mouse immortalized bone marrow macrophages B2.4 and B10A.4, and BJ (human foreskin fibroblasts) were used for routine screening of compounds. The cells were maintained in Nunc/Corning 80 cm^2 plastic tissue culture flasks and cultured in cell culture medium (DMEM with 5 g/l glucose, 2 mM glutamine, 100 U/ml penicillin, 100 μg/ml streptomycin, 10% fetal calf serum and sodium bicarbonate).
(§3) The cell suspensions that were prepared and diluted according to the particular cell type and the expected target cell density (2.500-30.000 cells per well based on cell growth characteristics) were added by pipette (80 μl) into 96/well microtiter plates. Inoculates were allowed a pre-incubation period of 24 hours at 37° C. and 5% CO2 for stabilisation. Four-fold dilutions of the intended test concentration were added at time zero in 20 μl aliquots to the microtiter plate wells. Usually, the compound tested was evaluated at six 4-fold dilutions. […] All compound concentrations were examined in duplicates. Incubations of cells with the tested compounds lasted for 72 hours at 37° C., in 5% CO2 atmosphere and 100% humidity. At the end of the incubation period, the cells were assayed by using Calcein AM. Ten microliters of the stock solution were pipetted into each well and incubated for 1 hour. Fluorescence (FD) was measured with the Labsystem FIA Reader Fluoroscan Ascent (UK).

NIH3T3 fibroblasts = test: Peroxidation of membrane lipids, MDA by TBA method; format: cell-based, mouse; details: FW = fresh weight
Description: A typical symptom associated with aging is the direct consequence of increased concentrations of reactive oxygen species and lipid peroxidation. […] MDA levels were measured using thiobarbituric acid (TBA method). […] The crude extract was centrifuged at 10,000×g for 5 minutes and 100 μl aliquots of the supernatant were mixed with 100 μl of 0.5% (w/v) TBA containing 0.1% (w/v) trichloroacetic acid. The resulting solution was then incubated for 30 min at 95° C. The samples were rapidly cooled on ice and centrifuged for 5 minutes at 1000×g. […] The newly prepared derivatives of the general formula thus have a protective function against the negative effects of reactive oxygen species that accumulate strongly in the tissues.

BJ skin fibroblasts = test: Intracellular ROS production, DCFH-DA probe; format: cell-based, human; details: 24 h incubation at 100, 10, 1 and 0.1 μM
Description: ROS production in living cells was determined by using the fluorescent probe DCFH-DA. In brief, compound 114 at 100, 10, 1 and 0.1 μM concentrations was incubated for 24 h with BJ skin fibroblasts. Thereafter, cells were washed with phosphate buffer and DCFH-DA was added. The fluorescence was read every 1 min over 20 min by using microplate reader Infinite M200 (TECAN, Switzerland). ROS production was calculated as the increase in fluorescence over 20 min.

[2] = test system: Rabbits (New Zealand Albino breed); details: rabbit, in vivo
Description: The test substance 114 was tested in Animal skin irritation test. Rabbits (New Zealand Albino breed) were used for the test. The test was performed according to ČSN EN ISO 10993 (Březen 2014): Biologické hodnoceni zdravotnických prostředků—část 10: Zkoušky dráždivosti a senzibilizace kůže, článek 6.3 Zkouška dráždivosti na zviřatech (Biological evaluation of medical devices—Part 10: Tests for irritation and delayed-type hypersensitivity). A dose 0.5 g of the test substance was applied to the skin of the back on each side of each rabbit. […] At first the one rabbit (test animal. No. 16) was used. Two other rabbits (rabbit No. 17 and No. 18) were used in confirmatory test. At the end of the contact time (4 hours) the dressings were removed and animals were examined for signs of erythema and oedema, and the response was evaluated at 1, 24, 48 and 72 hours afterpatches removal.

[3] = Calcein AM cytotoxicity, BJ; details: human, BJ foreskin fibroblasts
Description: as §1, §2, §3

[4] = Calcein AM cytotoxicity, B10A.4 (first column); details: mouse, B10A.4 immortalized bone marrow macrophages
Description: as §1, §2, §3

[5] = Radical scavenging activity determined by ORAC; details: relative to trolox; Mean ± SD (n = 3)
Description: The ability of compounds to scavenge free radicals in vitro was determined by Oxygen Radical Absorbance Capacity (ORAC) method. In brief, fluorescein (100 μl, […]) and 25 μl of compound solution were added into each working well in a 96-well microplate preincubated at 37° C. Thereafter, 25 μL of 250 mM AAPH was quickly added, microplate was shaken for 5 s and the fluorescence (Ex. 485 nm, Em. 510 nm) was read every 3 min over 90 min by using microplate reader Infinite 200 (TECAN, Switzerland). The net area under the curve was used to express antioxidant activity relative to trolox which was used as a standard.

Wistar rats = test: Acute dermal toxicity; format: in vivo
Description: The test substance 114 was tested for acute dermal toxicity using Wistar rats. Testing was performed according to ČSN EN ISO 10993-11: Biologické hodnoceni zdravotnických prostředků—část 11: Zkoušky na systémovou toxicitu and according to OECD Test Guideline No. 402 Acute Dermal Toxicity Adopted 24 Feb. 1987. The study was performed as limit test: two groups of animals—5 males and 5 females at the dose of 1000 mg/kg of body weight. The pre-test was performed with 1 male and 1 female from each group. After the pilot experiment, the other animals of the group were dosed. The test substance in delivered form was applied on the shaved skin of the test animals for 24 hours. The test animals were observed 14 days after exposure to the test substance, afterwards they were sacrificed, and the necropsy for macroscopic examination of the organs was performed. […] The test substance toxicity was evaluated on the basis of mortality, body weight changes, and clinical signs of toxicity during the observation period and necropsy findings at the end of the study. According to the results of study, the value of Maximum Tolerated Dose (dermal) of the test substance for rats of both sexes is higher than 1000 mg/kg of body weight.

CN(C)c1nc(NCc2ccco2)c2ncn(C3CCCCO3)c2n1 (centres unmarked) [Compound 114, 2-(Dimethylamino)-6-furfurylamino-9-(tetrahydro-2H-pyran-2-yl)-9H-purine]
MTD (in vivo): > 100 mg/kg | IC50 at 72 h [1]: > 167 µM | MDA (NIH3T3 fibroblasts): 8.8 nmol/g FW | concentration at which intracellular ROS production is significantly decreased (BJ skin fibroblasts): ≥ 10 µM | Primary Irritation Index ([2]; New Zealand Albino, 4 h): 0 | changes in animal weights [2]: No changes in animal weights | clinical signs of systemic intoxication [2]: No clinical signs of systemic intoxication | erythema and oedema [2]: No erythema and oedema | skin irritation [2]: No skin irritation | IC50 at 72 h [3]: > 167 µM | IC50 at 72 h [4]: > 167 µM | ORAC (compound/trolox) [5]: 0.211 ± 0.018 | mortality (Wistar rats; 1000 mg/kg of body weight dermal, 14 days observation): did not cause death of animals | Maximum Tolerated Dose (dermal) (Wistar rats; 24 hours on shaved skin, rats of both sexes): higher than 1000 mg/kg of body weight

Source: patent publication US11643413B2, “9-(2-oxacycloalkyl)-9H-purine-2,6-diamine derivatives and their use for the treatment of skin disorders” (UNIVERZITA PALACKEHO V OLOMOUCI, priority 2017, dated 2023)
